Measurements taken from US8722849B2, “Polypeptides” (Novo Nordisk A/S, priority 2011, dated 2014).
≈ marks a conversion by molar mass, not a printed value. Read-outs that look alike come from different tables or passages of the source. Starred links: 1 amine or outer side, 2 acyl side, 3 side chain; linkers in the order of their positions; H or OH if unused. Positions of bridges follow the written chain, without caps; N, C: chain ends. Residues, ends and D or L forms follow the SMILES beside them. *: point of attachment. C20 diacid = O=C(O)CCCCCCCCCCCCCCCCCCC(=O)*; γGlu = O=C(O)[C@H](CCC(=O)[*:2])N[*:1]; AEEA = NCCOCCOCC(=O)O

Tests used:
[1] = molecular target: T1, human amylin receptor (amylin 3(a) receptor: human calcitonin receptor + RAMP-3) (Homo sapiens, UniProt O60896+P30988); test: Assay (II)a functional CRE-luciferase assay, human amylin receptor; assay type: cell-based
T1 construct: expressed in transfected cells; host or cells: BHK570
T1 sequence (P30988 25-474): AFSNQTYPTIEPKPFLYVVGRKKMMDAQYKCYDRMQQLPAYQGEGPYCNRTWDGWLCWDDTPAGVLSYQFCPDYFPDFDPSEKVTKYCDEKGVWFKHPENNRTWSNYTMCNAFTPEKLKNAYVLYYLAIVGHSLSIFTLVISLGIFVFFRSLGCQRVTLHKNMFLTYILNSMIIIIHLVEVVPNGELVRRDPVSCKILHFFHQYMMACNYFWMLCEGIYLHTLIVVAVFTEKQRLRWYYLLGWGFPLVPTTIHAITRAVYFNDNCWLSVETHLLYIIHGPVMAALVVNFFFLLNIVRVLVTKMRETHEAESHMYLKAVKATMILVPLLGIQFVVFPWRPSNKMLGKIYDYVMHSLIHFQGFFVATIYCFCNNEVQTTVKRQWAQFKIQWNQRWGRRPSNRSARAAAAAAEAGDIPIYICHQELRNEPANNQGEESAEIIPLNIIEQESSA
T1 sequence (O60896 24-148 partner): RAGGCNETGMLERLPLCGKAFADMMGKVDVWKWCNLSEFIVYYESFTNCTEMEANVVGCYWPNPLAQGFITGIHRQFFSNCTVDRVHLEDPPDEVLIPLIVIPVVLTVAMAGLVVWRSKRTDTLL

[2] = molecular target: T2, human calcitonin receptor (Homo sapiens, UniProt P30988); test: Assay (II)a functional CRE-luciferase assay, human calcitonin receptor; assay type: cell-based
T2 construct: expressed in transfected cells; host or cells: BHK570
T2 sequence (P30988 25-474): T1 sequence (P30988 25-474)

[3] = Assay (IV) determination of solubility; assay type: physicochemical
Summary of the method: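 Eight 100 mM buffers (glycylglycine pH 3.0–5.0, bistrispropane pH 6.0–8.0) each received an equal volume of polypeptide dissolved in water at ~500 nmol/ml. Soluble polypeptide was measured by HPLC following 18 hours at room temperature and centrifugation.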

[4] = Table 2, BHK amylin 3(a)-receptor/CRE-luc cells
[5] = Table 7, human calcitonin (CTa) receptor
[6] = bistrispropane buffer, pH 6, pH 6.0, read-out: Solubility pH 6.0
[7] = bistrispropane buffer, pH 6.5, pH 6.5, read-out: Solubility pH 6.5
[8] = bistrispropane buffer, pH 7, pH 7.0, 18 hours at room temperature, Table 3, read-out: Solubility pH 7.0
[9] = bistrispropane buffer, pH 7, pH 7.0, read-out: Solubility pH 7.0
[10] = bistrispropane buffer, pH 7.5, pH 7.5, read-out: Solubility pH 7.5
[11] = bistrispropane buffer, pH 8, pH 8.0, read-out: Solubility pH 8.0
[12] = glycylglycine buffer, pH 3, pH 3.0, read-out: Solubility pH 3.0
[13] = glycylglycine buffer, pH 4, pH 4.0, 18 hours at room temperature, Table 2, read-out: Solubility pH 4.0
[14] = glycylglycine buffer, pH 4, pH 4.0, read-out: Solubility pH 4.0
[15] = glycylglycine buffer, pH 5, pH 5.0, read-out: Solubility pH 5.0

Row | EC50 [1, 4] | EC50 [2, 5] | solubility at 18 h [3, 6] | solubility at 18 h [3, 7] | solubility at 18 h [3, 8] | solubility at 18 h [3, 9] | solubility at 18 h [3, 10] | solubility at 18 h [3, 11] | solubility at 18 h [3, 12] | solubility at 18 h [3, 13] | solubility at 18 h [3, 14] | solubility at 18 h [3, 15] | SMILES | also measured
1 | 0.334 nM | 0.672 nM |  |  |  |  |  |  |  |  |  |  | CC[C@H](C)[C@H](NC(=O)[C@@H]1CCCN1C(=O)CNC(=O)[C@H](Cc1ccccc1)NC(=O)[C@H](CC(N)=O)NC(=O)[C@H](CC(N)=O)NC(=O)[C@H](CO)NC(=O)[C@H](CO)NC(=O)[C@H](Cc1c[nH]cn1)NC(=O)[C@H](Cc1c[nH]cn1)NC(=O)[C@H](CC(C)C)NC(=O)[C@H](Cc1ccccc1)NC(=O)[C@H](CCC(=O)O)NC(=O)[C@H](C)NC(=O)[C@H](CC(C)C)NC(=O)[C@H](CCCNC(=N)N)NC(=O)[C@H](CCC(N)=O)NC(=O)[C@@H](NC(=O)[C@H](C)NC(=O)[C@@H]1CSSC[C@H](NC(=O)COCCOCCNC(=O)COCCOCCNC(=O)CC[C@H](NC(=O)CCCCCCCCCCCCCCCCCCC(=O)O)C(=O)O)C(=O)N[C@@H](CC(N)=O)C(=O)N[C@@H]([C@@H](C)O)C(=O)N[C@@H](C)C(=O)N[C@@H]([C@@H](C)O)C(=O)N1)[C@@H](C)O)C(=O)N[C@@H](CC(C)C)C(=O)N1CCC[C@H]1C(=O)N1CCC[C@H]1C(=O)N[C@H](C(=O)N[C@@H](CC(N)=O)C(=O)N[C@H](C(=O)NCC(=O)N[C@@H](CO)C(=O)N[C@@H](CC(N)=O)C(=O)N[C@H](C(=O)N[C@@H](Cc1ccc(O)cc1)C(N)=O)[C@@H](C)O)C(C)C)[C@@H](C)O [Example 43, N-alpha-[2-(2-{2-[2-(2-{2-[(S)-4-Carboxy-4-(19-carboxyheptadecanoylamino)butyrylamino]ethoxy}ethoxy)acetylamino]ethoxy}ethoxy)acetyl]-[des1,Glu14,His17]-pramlintide] ({C20 diacid-γGlu-AEEA-AEEA}-CNTATCATQRLAEFLHHSSNNFGPILPPTNVGSNTY-NH2; disulfide 1-6) | EC50 ([1]; Table 3, BHK amylin 3(a)-receptor/CRE-luc cells): 0.334 nM; EC50 ([1]; Table 4): 0.334 nM; EC50 ([1]; Table 6, human amylin receptor): 0.334 nM; EC50 ([1]; Table 7, human amylin receptor): 0.334 nM; EC50 ([1]; Table 11): 0.334 nM; EC50 ([2]; Table 11, read-out: CTa receptor human EC50): 0.672 nM; solubility ([3]; pH 3, pH 3.0, read-out: Solubility pH 3.0): > 200 µM; solubility ([3]; pH 4, pH 4.0, 18 hours at room temperature, Table 2, read-out: Solubility pH 4.0): > 200 µM; solubility ([3]; pH 4, pH 4.0, read-out: Solubility pH 4.0): > 200 µM; solubility ([3]; pH 5, pH 5.0, read-out: Solubility pH 5.0): 194 µM (≈ 896 µg/mL); solubility ([3]; pH 6, pH 6.0, read-out: Solubility pH 6.0): 176 µM (≈ 813 µg/mL); solubility ([3]; pH 6.5, pH 6.5, read-out: Solubility pH 6.5): 195 µM (≈ 901 µg/mL); solubility ([3]; pH 7, pH 7.0, 18 hours at room temperature, Table 3, read-out: Solubility pH 7.0): > 200 µM; solubility ([3]; pH 7, pH 7.0, read-out: Solubility pH 7.0): > 200 µM; solubility ([3]; pH 7.5, pH 7.5, read-out: Solubility pH 7.5): > 200 µM; solubility ([3]; pH 8, pH 8.0, read-out: Solubility pH 8.0): > 200 µM
2 | 0.313 nM | 0.526 nM | > 200 µM | > 200 µM | > 200 µM | > 200 µM | > 200 µM | > 200 µM | > 200 µM | > 200 µM | > 200 µM | > 200 µM | CC[C@H](C)[C@H](NC(=O)[C@@H]1CCCN1C(=O)CNC(=O)[C@H](Cc1ccccc1)NC(=O)[C@H](CC(N)=O)NC(=O)[C@H](CC(N)=O)NC(=O)[C@H](CO)NC(=O)[C@H](CO)NC(=O)[C@H](Cc1c[nH]cn1)NC(=O)[C@H](CCCNC(=N)N)NC(=O)[C@H](CC(C)C)NC(=O)[C@H](Cc1ccccc1)NC(=O)[C@H](CCC(=O)O)NC(=O)[C@H](C)NC(=O)[C@H](CC(C)C)NC(=O)[C@H](CCCNC(=N)N)NC(=O)[C@H](CCC(N)=O)NC(=O)[C@@H](NC(=O)[C@H](C)NC(=O)[C@@H]1CSSC[C@H](NC(=O)[C@H](CCCNC(=N)N)NC(=O)[C@H](CCC(=O)O)NC(=O)[C@H](CCC(=O)O)NC(=O)CC[C@H](NC(=O)CCCCCCCCCCCCCCCCCCC(=O)O)C(=O)O)C(=O)N[C@@H](CC(N)=O)C(=O)N[C@@H]([C@@H](C)O)C(=O)N[C@@H](C)C(=O)N[C@@H]([C@@H](C)O)C(=O)N1)[C@@H](C)O)C(=O)N[C@@H](CC(C)C)C(=O)N1CCC[C@H]1C(=O)N1CCC[C@H]1C(=O)N[C@H](C(=O)N[C@@H](CC(N)=O)C(=O)N[C@H](C(=O)NCC(=O)N[C@@H](CO)C(=O)N[C@@H](CC(N)=O)C(=O)N[C@H](C(=O)N1CCC[C@H]1C(N)=O)[C@@H](C)O)C(C)C)[C@@H](C)O [Example 155, N-alpha-[(S)-4-Carboxy-4-(19-carboxynonadecanoylamino)butyryl]-Glu-Glu-[Arg1,Glu14,Arg17,Pro37]-pramlintide] ({C20 diacid-γGlu}-EERCNTATCATQRLAEFLRHSSNNFGPILPPTNVGSNTP-NH2; disulfide 4-9 (inferred); C-terminus assumed) | 
3 | 0.465 nM | 0.547 nM | > 200 µM | > 200 µM | > 200 µM | > 200 µM | > 200 µM | > 200 µM | > 200 µM | > 200 µM | > 200 µM | > 200 µM | CC[C@H](C)[C@H](NC(=O)[C@@H]1CCCN1C(=O)CNC(=O)[C@H](Cc1ccccc1)NC(=O)[C@H](CC(N)=O)NC(=O)[C@H](CCC(N)=O)NC(=O)[C@H](CO)NC(=O)[C@H](CO)NC(=O)[C@H](Cc1c[nH]cn1)NC(=O)[C@H](CCCNC(=N)N)NC(=O)[C@H](CC(C)C)NC(=O)[C@H](Cc1ccccc1)NC(=O)[C@H](CCC(=O)O)NC(=O)[C@H](C)NC(=O)[C@H](CC(C)C)NC(=O)[C@H](CCCNC(=N)N)NC(=O)[C@H](CCC(N)=O)NC(=O)[C@@H](NC(=O)[C@H](C)NC(=O)[C@@H]1CSSC[C@H](NC(=O)[C@H](CCCNC(=N)N)NC(=O)[C@H](CCC(=O)O)NC(=O)[C@H](CCC(=O)O)NC(=O)CC[C@H](NC(=O)CCCCCCCCCCCCCCCCCCC(=O)O)C(=O)O)C(=O)N[C@@H](CC(N)=O)C(=O)N[C@@H]([C@@H](C)O)C(=O)N[C@@H](C)C(=O)N[C@@H]([C@@H](C)O)C(=O)N1)[C@@H](C)O)C(=O)N[C@@H](CC(C)C)C(=O)N1CCC[C@H]1C(=O)N1CCC[C@H]1C(=O)N[C@H](C(=O)N[C@@H](CC(N)=O)C(=O)N[C@H](C(=O)NCC(=O)N[C@@H](CO)C(=O)N[C@@H](CC(N)=O)C(=O)N[C@H](C(=O)N1CCC[C@H]1C(N)=O)[C@@H](C)O)C(C)C)[C@@H](C)O [Example 157, N-alpha-[(S)-4-Carboxy-4-(19-carboxynonadecanoylamino)butyryl]-Glu-Glu-[Arg1,Glu14,Arg17,Gln21,Pro37]-pramlintide] ({C20 diacid-γGlu}-EERCNTATCATQRLAEFLRHSSQNFGPILPPTNVGSNTP-NH2; disulfide 4-9 (inferred); C-terminus assumed) | 
4 | 1.13 nM | 1.19 nM | > 200 µM | > 200 µM | > 200 µM | > 200 µM | > 200 µM | > 200 µM | > 200 µM | > 200 µM | > 200 µM | > 200 µM | CC[C@H](C)[C@H](NC(=O)[C@@H]1CCCN1C(=O)CNC(=O)[C@H](Cc1ccccc1)NC(=O)[C@H](CC(N)=O)NC(=O)[C@H](CCC(N)=O)NC(=O)[C@H](CO)NC(=O)[C@H](CO)NC(=O)[C@H](Cc1c[nH]cn1)NC(=O)[C@H](CCCNC(=N)N)NC(=O)[C@H](CC(C)C)NC(=O)[C@H](Cc1ccccc1)NC(=O)[C@H](CCC(=O)O)NC(=O)[C@H](C)NC(=O)[C@H](CC(C)C)NC(=O)[C@H](CCCNC(=N)N)NC(=O)[C@H](CCC(N)=O)NC(=O)[C@@H](NC(=O)[C@H](C)NC(=O)[C@@H]1CSSC[C@H](NC(=O)[C@H](CCCNC(=N)N)NC(=O)[C@H](CCC(=O)O)NC(=O)[C@H](CCC(=O)O)NC(=O)CC[C@H](NC(=O)CCCCCCCCCCCCCCCCCCC(=O)O)C(=O)O)C(=O)N[C@@H](CC(N)=O)C(=O)N[C@@H]([C@@H](C)O)C(=O)N[C@@H](C)C(=O)N[C@@H]([C@@H](C)O)C(=O)N1)[C@@H](C)O)C(=O)N[C@@H](CC(C)C)C(=O)N1CCC[C@H]1C(=O)N1CCC[C@H]1C(=O)N[C@H](C(=O)N[C@@H](CC(N)=O)C(=O)N[C@H](C(=O)NCC(=O)N[C@@H](CO)C(=O)N[C@@H](CCC(N)=O)C(=O)N[C@H](C(=O)N1CCC[C@H]1C(N)=O)[C@@H](C)O)C(C)C)[C@@H](C)O [Example 158, N-alpha-[(S)-4-Carboxy-4-(19-carboxynonadecanoylamino)butyryl]-Glu-Glu-[Arg1,Glu14,Arg17,Gln21,Gln35,Pro37]-pramlintide] ({C20 diacid-γGlu}-EERCNTATCATQRLAEFLRHSSQNFGPILPPTNVGSQTP-NH2; disulfide 4-9 (inferred)) | 
